Experimental data from ChEMBL document CHEMBL3885861, “Open TG-GATES”.

Species on record: Rattus norvegicus
Assay: Open TG-GATES - Regimen: Daily Repeat
Type: toxicity, organism-based, Sprague-Dawley
Design: regimen Daily Repeat, gender Male, age 6 weeks
Conditions: in vivo, po, route gavage; for APTT / Bas / Eos / Fbg / Hb / Ht / Lym / MCH / MCHC / MCV / Mono / Neu / PT / Plat / RBC / Ret / WBC: tissue Blood; for KIDNEY_L / KIDNEY_R / KIDNEY_TOTAL: tissue Kidney; for LIVER: tissue Liver; for A/G / ALP / ALT / AST / BUN / CRE / Ca / Cl / DBIL / GLC / IP / K / LDH / Na / PL / RALB / TBIL / TC / TG / TP / gamma-GTP: tissue Plasma
[1] = 0 mg/kg, 72 h, dose level Control, time 3 day
[2] = 0 mg/kg, […], dose level Control, time 7 day
[3] = 0 mg/kg, […], dose level Control, time 14 day
[4] = 0 mg/kg, […], dose level Control, time 28 day
[5] = 100 mg/kg, 72 h, dose level Low, time 3 day
[6] = 100 mg/kg, […], dose level Low, time 7 day
[7] = 100 mg/kg, […], dose level Low, time 14 day
[8] = 100 mg/kg, […], dose level Low, time 28 day

## CN(C)[C@@H]1C(O)=C(C(N)=O)C(=O)[C@@]2(O)C(O)=C3C(=O)c4c(O)cccc4[C@@](C)(O)[C@H]3C[C@@H]12 [TETRACYCLINE]
[1]
  TERMINAL_BW: 188 g
  APTT: 16 s
  Bas: 0%
  Eos: 0.8%
  Fbg: 221 mg/dL
  Hb: 13.6 g/dL
  Ht: 41.2%
  Lym: 82.4%
  MCH: 21.9 pg
  MCHC: 33.1%
  MCV: 66 fL
  Mono: 6.8%
  Neu: 10%
  PT: 12.3 s
  Plat: 96.9 x10_4/uL
  RBC: 625 x10_4/ul
  Ret: 8.2%
  WBC: 111.7 x10_2/uL
  KIDNEY_L: 0.9 g
  KIDNEY_R: 0.9 g
  KIDNEY_TOTAL: 1.7 g
  LIVER: 9 g
  A/G: 2.2
  ALP: 921.6 IU/L
  ALT: 43.6 IU/L
  AST: 69 IU/L
  BUN: 17.6 mg/dL
  CRE: 0.6 mg/dL
  Ca: 11.2 mg/dL
  Cl: 105.4 meq/L
  DBIL: 0.008 mg/dL
  GLC: 183 mg/dL
  IP: 8.2 mg/dL
  K: 4.7 meq/L
  LDH: 99.8 IU/L
  Na: 140.2 meq/L
  PL: 150.2 mg/dL
  RALB: 4 g/dL
  TBIL: 0.3 mg/dL
  TC: 83.2 mg/dL
  TG: 80.2 mg/dL
  TP: 5.8 g/dL
  gamma-GTP: 1.4 IU/L
[2]
  TERMINAL_BW: 228 g
  APTT: 18.8 s
  Bas: 0%
  Eos: 1%
  Fbg: 226.7 mg/dL
  Hb: 13.6 g/dL
  Ht: 40.4%
  Lym: 80.8%
  MCH: 21.6 pg
  MCHC: 33.5%
  MCV: 64.3 fL
  Mono: 6.2%
  Neu: 12%
  PT: 12.1 s
  Plat: 112.5 x10_4/uL
  RBC: 629.6 x10_4/ul
  Ret: 6.6%
  WBC: 142 x10_2/uL
  KIDNEY_L: 1 g
  KIDNEY_R: 1 g
  KIDNEY_TOTAL: 2 g
  LIVER: 10.9 g
  A/G: 2.1
  ALP: 1017 IU/L
  ALT: 38.2 IU/L
  AST: 63.2 IU/L
  BUN: 19 mg/dL
  CRE: 0.6 mg/dL
  Ca: 11 mg/dL
  Cl: 106.4 meq/L
  DBIL: 0.006 mg/dL
  GLC: 184.4 mg/dL
  IP: 8.1 mg/dL
  K: 6.3 meq/L
  LDH: 107.6 IU/L
  Na: 139 meq/L
  PL: 157.8 mg/dL
  RALB: 3.9 g/dL
  TBIL: 0.3 mg/dL
  TC: 83.4 mg/dL
  TG: 90.8 mg/dL
  TP: 5.7 g/dL
  gamma-GTP: 1 IU/L
[3]
  TERMINAL_BW: 287.8 g
  APTT: 17 s
  Bas: 0%
  Eos: 0.6%
  Fbg: 238.4 mg/dL
  Hb: 13.9 g/dL
  Ht: 41.6%
  Lym: 80.4%
  MCH: 20.9 pg
  MCHC: 33.5%
  MCV: 62.3 fL
  Mono: 5.6%
  Neu: 13.6%
  PT: 11.7 s
  Plat: 109.2 x10_4/uL
  RBC: 668.4 x10_4/ul
  Ret: 5.7%
  WBC: 131 x10_2/uL
  KIDNEY_L: 1.2 g
  KIDNEY_R: 1.2 g
  KIDNEY_TOTAL: 2.3 g
  LIVER: 13.5 g
  A/G: 1.8
  ALP: 903 IU/L
  ALT: 30.6 IU/L
  AST: 67.4 IU/L
  BUN: 18.6 mg/dL
  CRE: 0.5 mg/dL
  Ca: 11.1 mg/dL
  Cl: 103.2 meq/L
  DBIL: 0.01 mg/dL
  GLC: 175.2 mg/dL
  IP: 7.9 mg/dL
  K: 4.7 meq/L
  LDH: 100.6 IU/L
  Na: 141 meq/L
  PL: 154.6 mg/dL
  RALB: 4 g/dL
  TBIL: 0.3 mg/dL
  TC: 72.2 mg/dL
  TG: 134.8 mg/dL
  TP: 6.2 g/dL
  gamma-GTP: 1.6 IU/L
[4]
  TERMINAL_BW: 360.5 g
  APTT: 17.8 s
  Bas: 0%
  Eos: 1.4%
  Fbg: 235.8 mg/dL
  Hb: 14.8 g/dL
  Ht: 43.9%
  Lym: 83%
  MCH: 19.6 pg
  MCHC: 33.6%
  MCV: 58.3 fL
  Mono: 4.4%
  Neu: 11.6%
  PT: 11.8 s
  Plat: 100.7 x10_4/uL
  RBC: 753.4 x10_4/ul
  Ret: 2.9%
  WBC: 164.6 x10_2/uL
  KIDNEY_L: 1.3 g
  KIDNEY_R: 1.3 g
  KIDNEY_TOTAL: 2.7 g
  LIVER: 16 g
  A/G: 1.7
  ALP: 807.8 IU/L
  ALT: 31.2 IU/L
  AST: 58.2 IU/L
  BUN: 20.8 mg/dL
  CRE: 0.6 mg/dL
  Ca: 10.9 mg/dL
  Cl: 106.2 meq/L
  DBIL: 0.016 mg/dL
  GLC: 175.2 mg/dL
  IP: 7.2 mg/dL
  K: 4.6 meq/L
  LDH: 91.4 IU/L
  Na: 140 meq/L
  PL: 164 mg/dL
  RALB: 3.8 g/dL
  TBIL: 0.3 mg/dL
  TC: 78.2 mg/dL
  TG: 154.8 mg/dL
  TP: 6.1 g/dL
  gamma-GTP: 1 IU/L
[5]
  TERMINAL_BW: 197.6 g
  APTT: 16.3 s
  Bas: 0%
  Eos: 0.8%
  Fbg: 225.6 mg/dL
  Hb: 13.2 g/dL
  Ht: 39.6%
  Lym: 85%
  MCH: 21.7 pg
  MCHC: 33.4%
  MCV: 65.1 fL
  Mono: 5.2%
  Neu: 9%
  PT: 12.1 s
  Plat: 103.9 x10_4/uL
  RBC: 608.6 x10_4/ul
  Ret: 7.9%
  WBC: 100.3 x10_2/uL
  KIDNEY_L: 0.9 g
  KIDNEY_R: 0.9 g
  KIDNEY_TOTAL: 1.8 g
  LIVER: 9.3 g
  A/G: 2.1
  ALP: 900.4 IU/L
  ALT: 40.6 IU/L
  AST: 73.4 IU/L
  BUN: 16.8 mg/dL
  CRE: 0.6 mg/dL
  Ca: 11.2 mg/dL
  Cl: 106.4 meq/L
  DBIL: 0 mg/dL
  GLC: 195.6 mg/dL
  IP: 9 mg/dL
  K: 4.8 meq/L
  LDH: 134.4 IU/L
  Na: 140 meq/L
  PL: 145.2 mg/dL
  RALB: 3.9 g/dL
  TBIL: 0.3 mg/dL
  TC: 86.2 mg/dL
  TG: 48.8 mg/dL
  TP: 5.7 g/dL
  gamma-GTP: 0.8 IU/L
[6]
  TERMINAL_BW: 227.4 g
  APTT: 16.7 s
  Bas: 0%
  Eos: 1%
  Fbg: 241 mg/dL
  Hb: 13.5 g/dL
  Ht: 40.2%
  Lym: 85.2%
  MCH: 21 pg
  MCHC: 33.6%
  MCV: 62.3 fL
  Mono: 6.2%
  Neu: 8%
  PT: 12 s
  Plat: 101.8 x10_4/uL
  RBC: 645.8 x10_4/ul
  Ret: 6.6%
  WBC: 114 x10_2/uL
  KIDNEY_L: 1 g
  KIDNEY_R: 1.1 g
  KIDNEY_TOTAL: 2.1 g
  LIVER: 11.4 g
  A/G: 2.1
  ALP: 738 IU/L
  ALT: 37.3 IU/L
  AST: 71 IU/L
  BUN: 19.7 mg/dL
  CRE: 0.6 mg/dL
  Ca: 11.4 mg/dL
  Cl: 105 meq/L
  DBIL: 0.0033 mg/dL
  GLC: 181.3 mg/dL
  IP: 9.9 mg/dL
  K: 5 meq/L
  LDH: 105.7 IU/L
  Na: 140 meq/L
  PL: 164.7 mg/dL
  RALB: 3.9 g/dL
  TBIL: 0.3 mg/dL
  TC: 86.3 mg/dL
  TG: 87.7 mg/dL
  TP: 5.9 g/dL
  gamma-GTP: 1.7 IU/L
[7]
  TERMINAL_BW: 271.9 g
  APTT: 16.5 s
  Bas: 0%
  Eos: 0.6%
  Fbg: 229.6 mg/dL
  Hb: 13.9 g/dL
  Ht: 41.7%
  Lym: 91.2%
  MCH: 20.9 pg
  MCHC: 33.5%
  MCV: 62.5 fL
  Mono: 2.4%
  Neu: 6.2%
  PT: 11.7 s
  Plat: 108.7 x10_4/uL
  RBC: 667.2 x10_4/ul
  Ret: 5.5%
  WBC: 180.6 x10_2/uL
  KIDNEY_L: 1.1 g
  KIDNEY_R: 1.1 g
  KIDNEY_TOTAL: 2.2 g
  LIVER: 11.8 g
  A/G: 2.3
  ALP: 983.4 IU/L
  ALT: 35.8 IU/L
  AST: 66.6 IU/L
  BUN: 17.2 mg/dL
  CRE: 0.6 mg/dL
  Ca: 10.9 mg/dL
  Cl: 104.4 meq/L
  DBIL: 0.002 mg/dL
  GLC: 177 mg/dL
  IP: 8.3 mg/dL
  K: 4.6 meq/L
  LDH: 79.2 IU/L
  Na: 141 meq/L
  PL: 149.6 mg/dL
  RALB: 4.1 g/dL
  TBIL: 0.4 mg/dL
  TC: 71 mg/dL
  TG: 107.4 mg/dL
  TP: 5.9 g/dL
  gamma-GTP: 2.6 IU/L
[8]
  TERMINAL_BW: 346.9 g
  APTT: 17.5 s
  Bas: 0%
  Eos: 1%
  Fbg: 230.2 mg/dL
  Hb: 14.8 g/dL
  Ht: 44.5%
  Lym: 90%
  MCH: 19 pg
  MCHC: 33.4%
  MCV: 57.1 fL
  Mono: 3.8%
  Neu: 5.2%
  PT: 12.1 s
  Plat: 81 x10_4/uL
  RBC: 780 x10_4/ul
  Ret: 3.2%
  WBC: 163.8 x10_2/uL
  KIDNEY_L: 1.2 g
  KIDNEY_R: 1.2 g
  KIDNEY_TOTAL: 2.4 g
  LIVER: 13.6 g
  A/G: 1.7
  ALP: 765.4 IU/L
  ALT: 30.2 IU/L
  AST: 61.8 IU/L
  BUN: 19.8 mg/dL
  CRE: 0.6 mg/dL
  Ca: 10.8 mg/dL
  Cl: 107.2 meq/L
  DBIL: 0.032 mg/dL
  GLC: 173.8 mg/dL
  IP: 7.5 mg/dL
  K: 4.2 meq/L
  LDH: 88.2 IU/L
  Na: 141.4 meq/L
  PL: 154 mg/dL
  RALB: 3.8 g/dL
  TBIL: 0.3 mg/dL
  TC: 73.8 mg/dL
  TG: 141.8 mg/dL
  TP: 6.2 g/dL
  gamma-GTP: 1.2 IU/L
